In article PMC11480411, “Mucosal sugars delineate pyrazine vs pyrazinone autoinducer signaling in Klebsiella oxytoca” (Nature Communications, 2024):
Where “and” joins values, the source holds several entries; their conditions need not be identical. Equal values may be shown once.

Experiments:
Experiment in all cases: PRESTO-Tango GPCR screen and dose-response
Format in all cases: cell-based
HRH2 = biological target: T1, HRH2 (Homo sapiens, UniProt P25021); settings: replicate wells
T1 construct: expressed in transfected cells; host or cells: HTLA cells (HEK293 line stably expressing β-arrestin-TEV and tTA-Luciferase)
In short: (§1)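 HEK293 HTLA line (stable β-arrestin-TEV, tTA-luciferase); receptor-Tango transient transfection, PEI; 20 h compound exposure at 100 μM final; luciferase luminescence; fold vs PBS. Dose curves 10^−4–10^−15 M.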

HRH3 = biological target: T2, HRH3 (Homo sapiens, UniProt Q9Y5N1); settings: for HRH3 dose-response raw reporter signal (Fig. 5b source data): replicate wells
T2 construct: expressed in transfected cells; host or cells: HTLA cells (HEK293 line stably expressing β-arrestin-TEV and tTA-Luciferase)
In short: as §1

[1] = biological target: T3, histamine receptor H4 (HRH4) (Homo sapiens, UniProt Q9H3N8); settings: for HRH4 dose-response raw reporter signal (Fig. 5b source data): replicate wells
T3 construct: expressed in transfected cells; host or cells: HTLA cells (HEK293 line stably expressing β-arrestin-TEV and tTA-Luciferase)
In short: as §1

T1 sequence (P25021 whole entry): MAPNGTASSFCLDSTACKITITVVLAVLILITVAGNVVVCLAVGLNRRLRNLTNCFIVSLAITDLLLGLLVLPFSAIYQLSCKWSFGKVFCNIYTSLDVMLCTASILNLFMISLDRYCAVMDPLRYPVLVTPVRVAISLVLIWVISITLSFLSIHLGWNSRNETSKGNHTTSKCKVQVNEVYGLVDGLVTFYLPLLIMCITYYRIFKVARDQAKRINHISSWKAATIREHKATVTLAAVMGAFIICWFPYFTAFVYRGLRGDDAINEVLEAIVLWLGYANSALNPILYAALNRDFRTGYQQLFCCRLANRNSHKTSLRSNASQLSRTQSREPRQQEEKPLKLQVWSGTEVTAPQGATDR
T2 sequence (Q9Y5N1 whole entry): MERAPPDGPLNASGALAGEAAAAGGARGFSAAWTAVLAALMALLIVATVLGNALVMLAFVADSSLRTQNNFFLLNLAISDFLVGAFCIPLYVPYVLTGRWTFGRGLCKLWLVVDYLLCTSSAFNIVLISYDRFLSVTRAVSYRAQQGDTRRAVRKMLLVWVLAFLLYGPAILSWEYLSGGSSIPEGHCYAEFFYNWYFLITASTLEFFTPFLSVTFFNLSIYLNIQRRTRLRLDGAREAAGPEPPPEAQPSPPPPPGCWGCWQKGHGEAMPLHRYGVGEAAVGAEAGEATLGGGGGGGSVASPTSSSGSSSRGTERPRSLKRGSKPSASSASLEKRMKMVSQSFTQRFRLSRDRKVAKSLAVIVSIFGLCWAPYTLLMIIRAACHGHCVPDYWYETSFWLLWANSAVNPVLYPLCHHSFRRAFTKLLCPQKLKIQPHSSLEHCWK
T3 sequence (Q9H3N8 whole entry): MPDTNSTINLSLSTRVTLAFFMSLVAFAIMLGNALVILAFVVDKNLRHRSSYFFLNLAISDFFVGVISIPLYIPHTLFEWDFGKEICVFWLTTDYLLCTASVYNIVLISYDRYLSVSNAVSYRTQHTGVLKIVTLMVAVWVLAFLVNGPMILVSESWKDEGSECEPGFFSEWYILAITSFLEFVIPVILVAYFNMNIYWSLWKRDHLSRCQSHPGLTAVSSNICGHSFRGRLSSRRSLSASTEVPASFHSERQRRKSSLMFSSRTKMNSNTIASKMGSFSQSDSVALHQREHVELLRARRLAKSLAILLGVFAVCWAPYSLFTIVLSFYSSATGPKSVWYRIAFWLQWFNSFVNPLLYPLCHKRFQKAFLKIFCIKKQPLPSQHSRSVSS

## CC(C)Cc1ncc(CCCNC(=N)N)[nH]c1=O [compound 3]
HRH2; Log(10)Conc (M) -6
  HRH2 dose-response raw reporter signal (Fig. 5b source data): 38 (2×) and 44
HRH2; Log(10)Conc (M) -7
  HRH2 dose-response raw reporter signal (Fig. 5b source data): 91 and 59 and 47
HRH2; Log(10)Conc (M) -8
  HRH2 dose-response raw reporter signal (Fig. 5b source data): 50 (2×) and 41
HRH2; Log(10)Conc (M) -9
  HRH2 dose-response raw reporter signal (Fig. 5b source data): 44 and 41 and 71
HRH2; Log(10)Conc (M) -10
  HRH2 dose-response raw reporter signal (Fig. 5b source data): 53 and 47 and 59
HRH2; Log(10)Conc (M) -11
  HRH2 dose-response raw reporter signal (Fig. 5b source data): 56 (2×) and 44
HRH2; Log(10)Conc (M) -12
  HRH2 dose-response raw reporter signal (Fig. 5b source data): 41 (2×) and 27
HRH2; Log(10)Conc (M) -13
  HRH2 dose-response raw reporter signal (Fig. 5b source data): 29 and 47 and 56
HRH2; Log(10)Conc (M) -14
  HRH2 dose-response raw reporter signal (Fig. 5b source data): 106 and 71 and 50
HRH2; Log(10)Conc (M) -15
  HRH2 dose-response raw reporter signal (Fig. 5b source data): 100 and 35 and 29
HRH3; HRH3, 100 µM
  GPCR activation (heatmap value): -0.154
HRH3; Log(10)Conc (M) -4
  HRH3 dose-response raw reporter signal (Fig. 5b source data): 248 and 233 and 159
HRH3; Log(10)Conc (M) -5
  HRH3 dose-response raw reporter signal (Fig. 5b source data): 121 and 136 and 127
HRH3; Log(10)Conc (M) -6
  HRH3 dose-response raw reporter signal (Fig. 5b source data): 224 and 147 and 106
HRH3; Log(10)Conc (M) -7
  HRH3 dose-response raw reporter signal (Fig. 5b source data): 127 and 100 and 124
HRH3; Log(10)Conc (M) -8
  HRH3 dose-response raw reporter signal (Fig. 5b source data): 165 and 200 and 159
HRH3; Log(10)Conc (M) -9
  HRH3 dose-response raw reporter signal (Fig. 5b source data): 144 and 133 and 142
HRH3; Log(10)Conc (M) -10
  HRH3 dose-response raw reporter signal (Fig. 5b source data): 130 and 100 and 103
HRH3; Log(10)Conc (M) -11
  HRH3 dose-response raw reporter signal (Fig. 5b source data): 156 and 177 and 165
HRH3; Log(10)Conc (M) -12
  HRH3 dose-response raw reporter signal (Fig. 5b source data): 103 and 171 and 100
HRH3; Log(10)Conc (M) -13
  HRH3 dose-response raw reporter signal (Fig. 5b source data): 124 and 189 and 112
HRH3; Log(10)Conc (M) -14
  HRH3 dose-response raw reporter signal (Fig. 5b source data): 115 and 200 and 124
HRH3; Log(10)Conc (M) -15
  HRH3 dose-response raw reporter signal (Fig. 5b source data): 106 and 271 and 127
[1]; HRH4, 100 µM
  GPCR activation (heatmap value): 2.217
[1]; Log(10)Conc (M) -5
  HRH4 dose-response raw reporter signal (Fig. 5b source data): 8773 and 9531
[1]; Log(10)Conc (M) -6
  HRH4 dose-response raw reporter signal (Fig. 5b source data): 1621 and 2108
[1]; Log(10)Conc (M) -7
  HRH4 dose-response raw reporter signal (Fig. 5b source data): 649 and 769
[1]; Log(10)Conc (M) -8
  HRH4 dose-response raw reporter signal (Fig. 5b source data): 454 and 619
[1]; Log(10)Conc (M) -9
  HRH4 dose-response raw reporter signal (Fig. 5b source data): 531 and 542
[1]; Log(10)Conc (M) -10
  HRH4 dose-response raw reporter signal (Fig. 5b source data): 578 and 380
[1]; Log(10)Conc (M) -11
  HRH4 dose-response raw reporter signal (Fig. 5b source data): 348 and 430
[1]; Log(10)Conc (M) -12
  HRH4 dose-response raw reporter signal (Fig. 5b source data): 348 and 454
[1]; Log(10)Conc (M) -13
  HRH4 dose-response raw reporter signal (Fig. 5b source data): 286 and 351
[1]; Log(10)Conc (M) -14
  HRH4 dose-response raw reporter signal (Fig. 5b source data): 262 and 481
[1]; Log(10)Conc (M) -15
  HRH4 dose-response raw reporter signal (Fig. 5b source data): 292 and 283
[1]; PRESTO-Tango dose-response, n = 3, read-out: EC50 (HRH4 activation)
  EC50: 12.5 µM
